For data set [1] the following is noted: Crystal; DSC.
Data set [2] can be described thus: Molar enthalpy of transition or fusion. Particulars: Crystal; DSC.

Structures are written as SMILES. Numbers after ± are expanded uncertainties.

Consider `O=C(O)c1cc2ccccc2cc1O` [3-hydroxy-2-naphthoic acid], for which the Triple point temperature in data set [1] was found to be 494.4 ± 0.81 K. Moreover, in data set [2], the “Molar enthalpy of transition or fusion” value worked out at 6.62 ± 0.311 kcal/mol.

The values are drawn from the NIST ThermoML archive (doi:10.1021/acs.jced.8b00578).
